Source: PubChem BioAssay (NCI)
“And” between values parts separate entries of the source, which are not always exact repeats. Equal entries are not always repeated.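 Interpolation was linear, between the two tested concentrations surrounding the appropriate level; five concentrations were tested over 48 hours in 96-well plates. At the GI50, growth is halved. TGI marks complete inhibition of growth.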

How the values were obtained:
Assay in all cases: NCI tumour cell line growth inhibition, 48 h
HCC-2998 colon = test system: HCC-2998 colon
SF-268 CNS = test system: SF-268 CNS
UACC-257 melanoma = test system: UACC-257 melanoma
SNB-19 CNS = test system: SNB-19 CNS
NCI-H226 lung = test system: NCI-H226 lung
CAKI-1 renal = test system: CAKI-1 renal
NCI-H460 lung = test system: NCI-H460 lung
CCRF-CEM leukemia = test system: CCRF-CEM leukemia
SK-MEL-2 melanoma = test system: SK-MEL-2 melanoma
HL-60(TB) leukemia = test system: HL-60(TB) leukemia

Compound | GI50 (HCC-2998 colon) [µM] | TGI (HCC-2998 colon) [µM] | GI50 (SF-268 CNS) [µM] | TGI (SF-268 CNS) [µM] | GI50 (UACC-257 melanoma) [µM] | TGI (UACC-257 melanoma) | GI50 (SNB-19 CNS) | TGI (SNB-19 CNS) | GI50 (NCI-H226 lung) [µM] | TGI (NCI-H226 lung) [µM] | GI50 (CAKI-1 renal) [µM] | TGI (CAKI-1 renal) | GI50 (NCI-H460 lung) | TGI (NCI-H460 lung) [µM] | GI50 (CCRF-CEM leukemia) [µM] | TGI (CCRF-CEM leukemia) [µM] | GI50 (SK-MEL-2 melanoma) [µM] | TGI (SK-MEL-2 melanoma) [µM] | GI50 (HL-60(TB) leukemia) [µM] | TGI (HL-60(TB) leukemia) [µM]
COC1=CC(=O)c2nc(-c3cccc(C)n3)[nH]c2C1=O | 35.6 | > 100 | 24.7 | 49.6 | 65.3 | > 100 µM | 23.3 µM | 60.6 µM | 21.7 | 43.8 | 22 | 54.9 µM | 17.1 µM | 35.2 | 61.8 | > 100 | 52.4 | > 100 | 76.4 | > 100
CC(=O)CSCc1ccccn1 |  | > 100 |  | > 100 |  | > 100 µM |  | > 100 µM |  | 43.7 |  |  |  | > 100 |  | 90.7 |  | 71.4 |  | 64.5
Cc1nc(N)sc1C(=O)/C=C\c1ccc2c(c1)OCO2 |  | > 100 |  | > 100 |  | > 100 µM |  | > 100 µM |  | > 100 |  | > 100 µM |  | > 100 |  | > 100 |  | > 100 |  | > 100
Cc1cccc(NC(=O)C(=O)C(C(=O)c2ccc3ccccc3c2)C2OC(=O)c3ccccc32)c1C (centres undefined) |  | 19.5 |  | 53.6 |  | 35.1 µM |  | 25.4 µM |  | 8.74 |  | 39.3 µM |  | 87.8 |  | 68.8 |  | 29.8 |  | 68.5
CCC[CH2][Sn]1([CH2]CCC)[O]CC(CN2CCCC2)[O]1 (centres undefined) | 14.3 | 28.5 |  |  | 14.3 | 29.7 µM | 18.7 µM | 44.3 µM | 21.9 | 64.1 | 5.6 | 24.5 µM | 34.6 µM | > 100 | 3.33 | 21.3 | 13.8 | 27.1 | 3.87 | 15.2
COc1ccccc1CNCCCN1C(=O)c2ccc3c4c(ccc(c24)C1=O)C(=O)N(CCCOCCCCOCCCN)C3=O | 0.625 | 2.02 | 1.42 | 3.63 | 0.272 | 0.892 µM | 1.71 µM | 4.87 µM | 1.56 | 3.02 | 1.83 | 5.13 µM | 0.597 µM | 2.17 | 0.559 | 3.54 | 1.83 | 4.04 | 0.668 | 2.06
NS(=O)(=O)c1ccc(NC2(C(=O)O)CCCC2)cc1 |  | > 100 |  | > 100 |  | > 100 µM |  | > 100 µM |  | > 100 |  | > 100 µM |  | > 100 |  | > 100 |  | > 100 |  | > 100
COc1cc2c(c(OC)c1OC)-c1ccc(OC)c(=O)cc1[C@@H](NC(=O)c1ccccc1)CC2 | < 0.003 |  |  | 33.1 | 24.2 | 30 µM and > 100 µM | < 0.003 µM and 0.0157 µM | 30 µM and 46.3 µM |  | 1.89 | 0.029 | 30 µM and 61.2 µM | 0.00614 µM and < 0.0126 µM |  |  | > 100 | < 0.003 |  |  | < 0.013
COc1nc2ccccc2cc1-c1nc2c(cnn2-c2ccc(Br)cc2)c(=O)[nH]1 | 0.587 | > 50 | 0.131 | > 50 | 6.77 | > 50 µM | 0.0244 µM | 15.1 µM | 0.51 | > 50 | 0.0196 | > 50 µM | 0.0241 µM | > 50 | 0.0238 | > 31.8 | 0.0946 | 9.22 | 0.0158 | 0.0815
CCCCC(O)(c1ccc(Cl)cc1)C(CN1CCOCC1)c1ccc(Cl)cc1 (centres undefined) | 12.3 | 26.8 | 12.6 | 27.2 | 14.3 | 35 µM | 15.3 µM | 36.6 µM | 11.8 | 28.8 | 14.6 | 32.6 µM | 10.7 µM | 25.7 | 14.3 | 36.2 |  |  | 16.7 | 39.5
C=C1C(=O)O[C@@H]2/C=C(\C)CC/C=C(/COC(C)=O)C[C@@H](OC(C)=O)[C@@H]12 |  | 30.2 |  | 33.2 |  | 32.2 µM |  | > 95.9 µM |  | 64.1 |  | 20.2 µM |  | 26 |  | 14.3 |  | 31.8 |  | 8.52
NCCCCN(CCCN)/[N+]([O-])=N\O |  | > 100 |  | > 100 |  | > 100 µM |  | > 100 µM |  | > 100 |  | > 100 µM |  | > 100 |  | > 100 |  | > 100 |  | > 100
COC(=O)C1=CNC=C(C(=O)OC)C1C1=CC(=O)C(C)=CC1=O | 14.9 | 28.1 | 9.82 | 24.6 | 16.4 | 31.1 µM | 18.5 µM | 36.7 µM | 5.35 | 17.2 | 6.71 | 19.4 µM | 14.2 µM | 30.5 | 4.3 |  | 16.6 | 30.9 | 1.71 | 5.88
CCCCCCCC/C=C/CCCCCCCC(=O)OC[C@H]1O[C@@H](n2ccc(N)nc2=O)C(F)(F)[C@@H]1O | 17.5 | > 100 | < 0.0224 | 19.7 | 0.039 | > 100 µM | < 0.0419 µM | > 43.5 µM | 0.333 | > 61.3 | < 0.0135 | 3.59 µM | < 0.0212 µM | > 33.4 | < 0.0158 | 2.09 | 14.2 | > 100 | 0.0217 | 28
COc1cc(-c2ccc3c(c2)NC(=O)/C3=C\c2ccc[nH]2)ccc1O | 0.0981 | 1.84 | 0.377 | > 50 |  |  | 0.0277 µM | > 50 µM | 2.06 | > 50 | 0.255 | > 12.9 µM | 0.0194 µM | > 50 | 0.0176 | > 16.7 | 0.034 | > 50 | 0.0155 | 
N#CC(NNC(=O)Cc1ccccc1)c1c(O)ccc2ccccc12 (centres undefined) |  | 45.4 |  | 54.5 |  | 18.3 µM |  | > 64.4 µM |  | 47.3 |  | 25.8 µM |  | > 77.5 |  | 26.9 |  | 26.9 |  | > 46
